Results reported in patent US7731992B2, “Method of inhibiting aromatase with specific dietary supplements” (Triarco Industries, Inc., priority 2003, dated 2010).
pIC50: −log10 of the molar value. Values joined by “and” are separate entries in the source; they are usually repeats but may differ in a detail not shown here. Equal entries are not always repeated. Where two headings read alike, the source gives them in different places.

What was measured:
[1] = target: T1, human aromatase (CYP19) (Homo sapiens, UniProt P11511); test: Inhibition of CYP19-catalyzed dealkylation of DBF (fluorescence, 96 well plates); assay type: biochemical
T1 construct: purchased Gentest P260; host or cells: baculovirus-infected insect cells (microsomes)
T1 sequence (P11511 1-503): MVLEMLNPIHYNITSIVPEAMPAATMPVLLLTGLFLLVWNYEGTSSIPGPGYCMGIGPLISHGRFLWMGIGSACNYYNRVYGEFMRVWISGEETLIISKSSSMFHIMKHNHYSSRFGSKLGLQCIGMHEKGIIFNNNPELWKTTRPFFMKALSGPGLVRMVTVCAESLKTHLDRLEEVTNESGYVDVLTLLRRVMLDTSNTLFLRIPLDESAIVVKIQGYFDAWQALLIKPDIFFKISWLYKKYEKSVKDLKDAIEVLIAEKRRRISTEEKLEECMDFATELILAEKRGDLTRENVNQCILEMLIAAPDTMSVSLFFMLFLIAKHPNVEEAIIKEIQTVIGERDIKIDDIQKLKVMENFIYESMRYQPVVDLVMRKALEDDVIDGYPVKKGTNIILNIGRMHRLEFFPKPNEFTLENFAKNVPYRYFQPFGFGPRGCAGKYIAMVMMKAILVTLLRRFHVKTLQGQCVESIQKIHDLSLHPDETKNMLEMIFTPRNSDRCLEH
Description: The inhibition of aromatase activity was measured in 96 well plates with cDNA-derived enzymes in microsomes prepared from baculovirus-infected insect cells. Dibenzylfluorescien (DBF) was used as a reporter substrate for the activity of the aromatase enzyme.
In the inhibition study, the 50 percent inhibitory concentration (IC50) for each substance was determined with the enzyme. A single concentration of DBF, below the apparent Km, and multiple test substance concentrations, separated by approximately ½ log, were tested in duplicate. Metabolism of the model substrate was assayed by the production of fluorescein metabolite, which was detected and measured using fluorescence.
The amount of solvent during the assay incubations was the same for all test substance concentrations.
As noted above, the assay was conducted in 96 well microplates. Initially, solutions of the substrate in acetonitrite at a concentration equal to the km were prepared. The inhibition of the CYP19-catalyzed dealkylation of DBF was determined, using 4-hydroxyandrostenedione, a known inhibitor of CYP19, as a positive control, and sulfaphenazone, as a negative control. The final concentration of CYP19 (Gentest catalog number P260) was 0.4 pmol/well, and the final concentration of microsomal protein was normalized to 0.25 mg/ml by the addition of the insect cell control protein. The final concentration of substrate was 0.2 μM, and the final concentration of the potassium phosphate buffer was 50 μM. The incubation time was 30 minutes.
A row of 12 wells was used in each test, and each test of a test substance/substrate combination was duplicated in a second row. In each test, wells 1 to 8 contained serial 1:3 dilutions of the inhibitors in which the maximum concentration of phytosterols was 10 μg/ml, and that of the other test substances was 250 μg/ml, assuming complete solubilization at the desired concentrations, i.e., 2 mg/ml for the phytosterols and 50 mg/ml for the other test substances. Wells 9 and 10 contained no inhibitor, and wells 11 and 12 were blanks in which stop solution was added before the enzyme to test for background fluorescence.
The plates were then warmed to 37° C., and incubation was initiated by the addition of the pre-warmed enzyme, additional insect cell control protein in an amount sufficient to provide the desired concentration, and substrate. The final cofactor concentrations were 1.3 μM NADP, 3.3 μM glucose-6-phosphate, and 0.4 U/ml glucose-6-phosphate dehydrogenase. The incubation reactions were stopped after 30 minutes by the addition of 0.075 ml of 2 N NaOH, and fluorescence was measured for each well using a FLUOstar model 403 plate scanner after a post-stop incubation period of about 4 hours. The DBF metabolite fluorescein was measured using an excitation wavelength of about 485 nm and an emission wavelength of about 538 nm.

[2] = assay type: physicochemical
Description: The test solutions were prepared by adding the test substances to separate aliquots of dimethyl sulfoxide (DMSO). The target concentration of each test substance was 50 mg/ml. […] Mild heat and sonication were applied to aid in obtaining solutions of the other substances at the desired concentration. The black cohosh powder and echinacea were also centrifuged prior to the use of the supernatant in the assay to sediment any particulate matter present in the solutions.
None were successful. […] Insoluble material that would not sediment when centrifuged was still present at 2 mg/ml, forming a thin, whitish layer on the surface of the solution. This particulate material was avoided when sampling the sterol solution for the assay.

Q: With `C[C@]12CCC(=O)C(O)=C1CC[C@@H]1[C@@H]2CC[C@]2(C)C(=O)CC[C@@H]12` [4-Hydroxandrostendione, 4-hydroxyandrostenedione, reference compound] as the molecule, how does the pIC50 [1] read?
A: 7.96

Q: With `Nc1ccc(S(=O)(=O)Nc2ccnn2-c2ccccc2)cc1` [Sulfaphenazole, reference compound] as the molecule, how does the pIC50 ([1]; positive and negative control, DBF 0.2 μM, 30 min, duplicate determinations, read-out: IC50 CYP19/DBF (controls)) read?
A: < 5.00

Q: With Astaxanthin as the molecule, how does the “IC50 CYP19/DBF” value ([1]; cDNA-derived enzyme in microsomes from baculovirus-infected insect cells, DBF 0.2 μM, 30 min, duplicate determinations, concentration assumes complete solubilization) read?
A: 67 µg/mL and 66 µg/mL

Q: What about the “Inhibition of aromatase activity (in words)” value ([1]; summary statement on Table 2) of the same molecule?
A: most significant inhibition

Q: And the “Solubility in DMSO (in words)” value [2]?
A: dissolve completely

Q: For Phytosterols, which “Solubility in DMSO (in words)” value [2] is on record?
A: little or no solubility in DMSO
